In patent publication US20250280826A1, “PLANT GROWTH PROMOTER” (KAO CORPORATION, priority 2022, published 2025):

Key:
Type in all cases: in vivo
soybean = assay: Example 3: soybean nodule activity, mixing ratio of ascorbic acid and antioxidant; details: ascorbic acid dissolved in tap water, in comparison to no application
Description: The items of the preparation of soil and sowing, the inoculation of Rhizobium, the exudate collection method for measuring the amount of ureide nitrogen, which serves as an indicator of nodule activity, the experimental operation before quantification of exudate, the equipment and measurement method used for quantification of the amount of ureide nitrogen, and the standard products used and quantification were the same as those in Example 2, and the cultivation of soybean was carried out for 21 days.
The cultivation was carried out in an artificial weather apparatus (LPH-411SP, Nippon Medical & Chemical Instruments Co., Ltd.), with the light condition of a light period (light intensity from […]) of 16 hours/a dark period of 8 hours, the temperature of 30° C. for the light period/25° C. for the dark period, and a humidity of 50%. On day 7 after sowing, the plants were thinned so as to be one plant per pot. Watering was carried out by adding water to a vat placed under the pot so that about 5 cm of the lower part of the pot would be submerged after the vat had run out of water.
The spraying solutions shown in Table 4 below were prepared in the same manner as in Example 2, and 6.7 mL of each was sprayed per plant using a mister an day 14 after sowing. Foliar spray was carried out only once, and 7 types of test plots were examined (Table 4). […]

soybean (Glycine max) = assay: Test Example 1: soybean yield (dry grain mass) in field after one foliar spray
Description: An ascorbic acid aqueous solution prepared by dissolving ascorbic acid in water and an ascorbic acid aqueous solution prepared by dissolving ascorbic acid in deionized water were prepared, and the influence of the ascorbic acid dissolved in water on the application effect for soybean (Glycine max) was examined.
The influence of one foliar spray of 500 mass ppm ascorbic acid on the soybean yield was evaluated. The evaluated test plots 1 to 3 are as shown below. • 1 plot: control (no application) • 2 plot: foliar spray of 500 mass ppm ascorbic acid (dissolved in tap water) • 3 plot: foliar spray of 500 mass ppm ascorbic acid (dissolved in deionized water)
The cultivation of soybean was carried out in a field in Tochigi Prefecture, and the soybean cultivar used was “Sato no Hohoemi.” Of the field, a ridge with a width of 2 m excluding the perimeter was used as one plot, and foliar spray treatment was carried out. […]
The ascorbic acid used was “Food Additive Grade Vitamin C (L-ascorbic acid) Fine Mesh TypeSSS” manufactured by Fuso Chemical Co. Ltd. An aqueous solution of 500 mass ppm ascorbic acid was dissolved in tap water or deionized water for production. […] The dry grain mass was measured as yield data.
After calculating the average grain weight of each plant in one plot, the mean and the standard deviation of three plots were calculated (FIG. 1).

azuki bean = assay: Example 6: initial growth index in azuki bean (above-/below-ground part dry weight); details: ascorbic acid 1 500 mass ppm, tap water vs deionized water
Description: Medium-term fertilizer effect type culture soil (Takii hydrous cell medium-term fertilizer effect type, Takii & Co., Ltd.) and vermiculite grains (Akagi-Engei Co., Ltd.) were mixed at a volume ratio of 1:1, and the soil was placed in a polypot (diameter: 10.5 cm, height: 9 cm). The azuki bean seeds used were “Tamba Dainagon Azuki Beans” (purchased from Takii & Co., Ltd.). After tap water was supplied in an amount of 250 mL per pot, 2 seeds per pot were each sown at a depth of from about 1 to 2 cm from the soil surface. The number of repeats in each test plot was 6 (n=6). […]
Spraying solutions were prepared, and 6.7 mL of each per plant was sprayed only once using a mister on day 21 after sowing. […] The evaluated test plots 1 to 4 are as follows.
On day 28 after sowing, the plant body was dried at 90° C. for 24 hours, and the above-ground part dry weight and below-ground part dry weight of the plant body were then measured. • 1 plot: control (no application) • 2 plot: foliar spray of 1 500 mass ppm ascorbic acid (dissolved in tap water) • 3 plot: foliar spray of 1 500 mass ppm ascorbic acid (dissolved in deionized water) • 4 plot: foliar spray of 1 500 mass ppm ascorbic acid+1 mass ppm BHT+50 mass ppm isobutyl alcohol+350 mass ppm sorbitan monolaurate (dissolved in tap water)

O=C1O[C@H]([C@@H](O)CO)C(O)=C1O [ascorbic acid, (R)-3,4-dihydroxy-5-((S)-1,2-dihydroxyethyl)furan-2(5H)-one]
nodule activity (allantoin and allantoic acid in exudate) (soybean): did not change or rather decreased | effects of ascorbic acid on seed weight (soybean (Glycine max); 500 mass ppm dissolved in tap water): effects of ascorbic acid disappear | effects of tap water and deionized water on the seed weight (soybean (Glycine max); 500 mass ppm, 20 mL per plant, day 60 after sowing, tap water vs deionized water): different effects | effects on the initial growth index (azuki bean): varied in accordance with the water quality
